MIC, IC50 and viability data for 10 compounds are collected here from patent publication US20260250312A1, “ANTIBACTERIAL COMPOUNDS ELIMINATING DORMANT BACTERIAL CELLS” (UNIVERSITÉ D'AIX-MARSEILLE, priority 2022, published 2026).

Structures are written as SMILES. “And” between values parts separate entries of the source, which are not always exact repeats. Equal values may be shown once.

Test [1] deals with Pseudomonas aeruginosa (ATCC27853). The test can be described thus: Microdilution MIC assay (CLSI-based), P. aeruginosa. It counts as cell-based. The conditions noted are these: Pseudomonas aeruginosa, ATCC27853, 20 h, 20 hours incubation at 35-37° C., MHB; read-out: Minimum inhibitory concentration P. aeruginosa ATCC27853. A digest of the protocol:
(§1)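 Broth microdilution per modified CLSI guidelines in Mueller Hinton broth, 200 μL, inoculum ca. 5×10^5 CFU/mL; compounds tested as salts, twofold dilutions from 0.2 mg/mL, in triplicate. MIC determined from OD at 620 nm after incubation.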
For orientation: Broth dilution looks for growth in wells or tubes with falling amounts of substance.

Another test relates to CHO-K1 cells. The test can be described thus: WST1 cytotoxicity test. The conditions noted are these: Cricetulus griseus, CHO-K1, 24 h, WST1, 24 hours at 37° C.; read-out: IC50 CHO. It counts as cell-based, Chinese hamster. In outline: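 CHO-K1 cells pre-cultured 24 h, then exposed 24 h at 37 °C to increasing compound concentrations. Viability read as WST-1 formazan absorbance at 450 nm after 20 min; dose-response fitted by nonlinear regression.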

Test [2] deals with Escherichia coli (ATCC28922). The test can be described thus: Microdilution MIC assay (CLSI-based), E. coli. It counts as cell-based. The conditions noted are these: Escherichia coli, ATCC28922, 20 h, 20 hours incubation at 35-37° C., MHB; read-out: Minimum inhibitory concentration E. coli ATCC28922. In outline: as §1
Test [3] relates to Enterococcus faecalis (ATCC29212). The test can be described thus: Microdilution MIC assay (CLSI-based), E. faecalis. The conditions noted are these: Enterococcus faecalis, ATCC29212, 20 h, 20 hours incubation at 35-37° C., MHB; read-out: Minimum inhibitory concentration E. faecalis ATCC29212. It counts as cell-based. In outline:
as §1

The subject of test [4] is Staphylococcus aureus (ATCC25923). The test can be described thus: Microdilution MIC assay (CLSI-based), S. aureus. It counts as cell-based. The conditions noted are these: Staphylococcus aureus, ATCC25923, 20 h, 20 hours incubation at 35-37° C., MHB; read-out: Minimum inhibitory concentration S. aureus ATCC25923. A digest of the protocol: as §1
The test system of test [5] is E. coli non-persister cells. The test can be described thus: Anti-persister activity test, non-persister cells. It is filed as cell-based, Escherichia coli. The conditions noted are these: Escherichia coli; concentration used 200 μM, 4 hours treatment; read-out: Non-persister cell survival rate 96 h. The protocol:
(§2) Anti-persister activity test: Escherichia coli (E. coli) persister cells were generated and isolated as described by MARQUES, C. N. H. et al. (Applied and Environmental Microbiology 2014, Vol. 80, No. 22, pp. 6976-6991). E. coli persister cells were compared to E. coli non-persister cells. 1 mL persister or non-persister bacteria culture was added in a 1.5 mL microtube with each of the compounds to be tested or ciprofloxacin as a […], and incubated at 37° C. with 160 rpm shaking for 4 hours. After 4 hours treatment with the compounds, the microtubes were centrifuged at 3,500g for 5 minutes and the pellets were resuspended in 1 mL of fresh drug free RM broth (10 g/L M9 salt, 2% casamino acids, 1 mM MgCl2, 1% glycerol). Resuspended bacteria were then plated over LB agar plates and incubated at 37° C. Bacterial colonies were enumerated after 24, 48 and 96 hours to estimate the survival rate.

For test [6], the system named is Escherichia coli (E. coli) persister cells. The test can be described thus: Anti-persister activity test, persister cells. It counts as cell-based. Particulars: Escherichia coli; concentration used 200 μM, 4 hours treatment; read-out: Persister cell survival rate 96 h. The protocol:
as §2

Usually IC50 stands for the concentration that gives 50% inhibition. For `COC(=O)[C@H](Cc1ccccc1)NC(=O)CC[C@@H](C)[C@H]1CCC2C3C(CC[C@@]21C)[C@@]1(C)CC[C@H](NCCCCN)C[C@H]1C[C@H]3O` (stereo partly drawn) [Compound S030, methyl ((4R)-4-((3S,5S,7R,10S,13R,17R)-3-((4-aminobutyl)amino)-7-hydroxy-10,13-dimethylhexadecahydro-1H-cyclopenta[a]phenanthren-17-yl)pentanoyl)-L-phenylalaninate], the MIC is > 200 µM and > 124 µg/mL in test [1]; 50 µM and 32 µg/mL in test [2]; 200 µM and 124 µg/mL in test [3]; 100 µM and 64 µg/mL in test [4]. Also, the IC50 with CHO-K1 cells is > 500 µM and > 311 µg/mL.
`COC(=O)[C@H](NC(=O)CC[C@@H](C)[C@H]1CCC2C3CC[C@@H]4C[C@@H](NCCCN5CCN(CCCN)CC5)CC[C@]4(C)C3C[C@H](O)[C@@]21C)C(C)C` (stereo partly drawn) [Compound S053, methyl ((4R)-4-((3S,5R,10S,12S,13R,17R)-3-((3-(4-(3-aminopropyl)piperazin-1-yl)propyl)amino)-12-hydroxy-10,13-dimethylhexadecahydro-1H-cyclopenta[a]phenanthren-17-yl)pentanoyl)-D-valinate]: the MIC was > 200 µM and > 128 µg/mL in test [1]; 100 µM and 64 µg/mL in test [2]; 200 µM and 128 µg/mL in test [3]; 12.5 µM and 8 µg/mL in test [4]. Besides, the IC50 in the test on CHO-K1 cells is > 100 µM and > 68 µg/mL.
In the case of `COC(=O)[C@H](Cc1ccccc1)NC(=O)CC[C@@H](C)[C@H]1CCC2C3C(CC[C@@]21C)[C@@]1(C)CC[C@H](NCCCN(CCCN)CCCN)C[C@H]1C[C@H]3O` (stereo partly drawn) [Compound S037, methyl ((4R)-4-((3S,5S,7R,10S,13R,17R)-3-((3-(bis(3-aminopropyl)amino)propyl)amino)-7-hydroxy-10,13-dimethylhexadecahydro-1H-cyclopenta[a]phenanthren-17-yl)pentanoyl)-L-phenylalaninate], the MIC is 25 µM and 16 µg/mL in test [1]; 6.25 µM and 4 µg/mL in test [2]; 6.25 µM and 4 µg/mL in test [3]; 6.25 µM and 4 µg/mL in test [4]. For the same compound, the IC50 in the test on CHO-K1 cells was 127 µM and 91.7 µg/mL.
Consider `O=C(O)c1cn(C2CC2)c2cc(N3CCNCC3)c(F)cc2c1=O` [Ciprofloxacin, ciprofloxacin, reference compound], for which the viability at 200 µM in test [5] was found to be 0%; in test [6], 5.6%.
With `COC(=O)[C@H](NC(=O)CC[C@@H](C)[C@H]1CCC2C3C(C[C@H](O)[C@@]21C)[C@@]1(C)CC[C@H](NCCCN2CCN(CCCN)CC2)C[C@H]1C[C@H]3O)C(C)C` (stereo partly drawn) [Compound S059, methyl ((4R)-4-((3S,5S,7R,10S,12S,13R,17R)-3-((3-(4-(3-aminopropyl)piperazin-1-yl)propyl)amino)-7,12-dihydroxy-10,13-dimethylhexadecahydro-1H-cyclopenta[a]phenanthren-17-yl)pentanoyl)-D-valinate], the MIC is > 200 µM and > 128 µg/mL in test [1]; 200 µM and 128 µg/mL in test [2]; > 200 µM and > 128 µg/mL in test [3]; 50 µM and 32 µg/mL in test [4]. The IC50 in the test on CHO-K1 cells was 56.1 µM and 39.5 µg/mL.
Take `COC(=O)[C@H](CC(C)C)NC(=O)CC[C@@H](C)[C@H]1CCC2C3C(CC[C@@]21C)[C@@]1(C)CC[C@H](NCCCNCCCCNCCCN)C[C@H]1C[C@H]3O` (stereo partly drawn) [Compound S036, methyl ((4R)-4-((3S,5S,7R,10S,13R,17R)-3-((3-((4-((3-aminopropyl)amino)butyl)amino)propyl)amino)-7-hydroxy-10,13-dimethylhexadecahydro-1H-cyclopenta[a]phenanthren-17-yl)pentanoyl)-L-leucinate]: the MIC in test [1] was 12.5 µM and 8 µg/mL; in test [2], 6.25 µM and 4 µg/mL; in test [3], 6.25 µM and 4 µg/mL; in test [4] it was 50 µM and 32 µg/mL. Moreover, in the test on CHO-K1 cells, the 50% inhibitory concentration (IC50) was 50.5 µM and 35.6 µg/mL.
For the compound `COC(=O)[C@@H](NC(=O)CC[C@@H](C)[C@H]1CCC2C3C(CC[C@@]21C)[C@@]1(C)CC[C@H](NCCNCCNCCNCCN)C[C@H]1C[C@H]3O)C(C)C` (stereo partly drawn) [Compound S049, methyl ((4R)-4-((3S,5S,7R,10S,13R,17R)-3-((2-((2-((2-((2-aminoethyl)amino)ethyl)amino)ethyl)amino)ethyl)amino)-7-hydroxy-10,13-dimethylhexadecahydro-1H-cyclopenta[a]phenanthren-17-yl)pentanoyl)-L-valinate], the MIC was 100 µM and 64 µg/mL in test [1]; 100 µM and 64 µg/mL in test [2]; 100 µM and 64 µg/mL in test [3]; 50 µM and 32 µg/mL in test [4]. For the same compound, the IC50 in the test with CHO-K1 cells was 94.9 µM and 64.2 µg/mL.
With `COC(=O)[C@H](NC(=O)CC[C@@H](C)[C@H]1CCC2C3C(C[C@H](O)[C@@]21C)[C@@]1(C)CC[C@H](NCCCNCCCCNCCCN)C[C@H]1C[C@H]3O)C(C)C` (stereo partly drawn) [Compound S058, methyl ((4R)-4-((3S,5S,7R,10S,12S,13R,17R)-3-((3-((4-((3-aminopropyl)amino)butyl)amino)propyl)amino)-7,12-dihydroxy-10,13-dimethylhexadecahydro-1H-cyclopenta[a]phenanthren-17-yl)pentanoyl)-D-valinate], the MIC in test [1] was 50 µM and 32 µg/mL; in test [2] it was 100 µM and 64 µg/mL; in test [3], 100 µM and 64 µg/mL; in test [4], 12.5 µM and 8 µg/mL. In addition, the half-inhibitory concentration (IC50) in the test on CHO-K1 cells was 6.55 µM and 4.63 µg/mL.
For `COC(=O)[C@H](Cc1ccccc1)NC(=O)CC[C@@H](C)[C@H]1CCC2C3C(CC[C@@]21C)[C@@]1(C)CC[C@H](NCCCN)C[C@H]1C[C@H]3O` (stereo partly drawn) [Compound S016, methyl ((4R)-4-((3S,5S,7R,10S,13R,17R)-3-((3-aminopropyl)amino)-7-hydroxy-10,13-dimethylhexadecahydro-1H-cyclopenta[a]phenanthren-17-yl)pentanoyl)-L-phenylalaninate], the MIC was 50 µM and 32 µg/mL in test [1]; 25 µM and 16 µg/mL in test [2]; 25 µM and 16 µg/mL in test [3]; 12.5 µM and 8 µg/mL in test [4]. Moreover, the half-inhibitory concentration (IC50) in the test on CHO-K1 cells was 66 µM and 40.2 µg/mL.
Turning to `COC(=O)[C@H](C)NC(=O)CC[C@@H](C)[C@H]1CCC2C3C(CC[C@@]21C)[C@@]1(C)CC[C@H](NCCCNCCNCCCN)C[C@H]1C[C@H]3O` (stereo partly drawn) [Compound S034, methyl ((4R)-4-((3S,5S,7R,10S,13R,17R)-3-((3-((2-((3-aminopropyl)amino)ethyl)amino)propyl)amino)-7-hydroxy-10,13-dimethylhexadecahydro-1H-cyclopenta[a]phenanthren-17-yl)pentanoyl)-L-alaninate], the MIC in test [1] is 100 µM and 64 µg/mL; in test [2], 50 µM and 32 µg/mL; in test [3], 6.25 µM and 4 µg/mL; in test [4], 50 µM and 32 µg/mL. Also, the concentration for half-maximal inhibition (IC50) with CHO-K1 cells is 266 µM and 168 µg/mL.
